The target in one test is imidazoline receptor. The test is described as follows: Imidazoline receptor binding (Tables 2 and 3). Conditions: Table 2.
The target in test [1] is imidazoline I2 sites. The test is described as follows: Competition binding of 5 nM [3H]idazoxan to rat liver membranes. Conditions: for Ki: 5 nM [3H]idazoxan (Kd 14 ± 2 nM), mean ± SD, compounds 4 and 8 mean ± 95% confidence intervals; for Hill Slope: inhibition of [3H]idazoxan binding. The protocol: Membrane preparation. Membranes were prepared in accordance with known techniques (R. Zonnenchein et al., Eur. J. Pharmacol. 190, 203-215 (1990)). […] The livers were weighed and minced with scissors before being homogenized at 4° C. in solution A (0.25 M sucrose containing 0.1 mM phenylmethyl sulfonyl fluoride 1:10 v/v) for 1 min using a Biospec homogenizer (Bartlesville, Okla., USA). The homogenate was centrifuged at 600×g for 10 min at 4° C. The resulting pellet was washed with solution A, discarded and the supernatant fractions were combined and centrifuged at 12,000×g for 30 min. This pellet was washed then resuspended in cold buffer B (50 mM Tris/HCl pH 7.4). Using a Bio-Rad (Hercules, Calif., USA) assay kit, the protein concentration was determined using bovine serum albumin as the standard according to the assay of Bradford et al. (Bradford, M. M., 1976. Anal. Biochem. 72, 248-254.). The preparation was stored at −80° C. at a concentration of 20 mg protein/ml. Competition binding studies. Competition experiments were performed in 1 ml buffer B containing 5 nM [^3H]idazoxan. […] In all experiments, bound and free radioligand were separated by vacuum filtration through Whatman GF/C filters and washed with 2×10 ml cold buffer B. Radioactivity on filters was determined by liquid scintillation spectroscopy using a Packard Tri-Carb 2100TR. […] Data analysis. Binding analyses, statistics and graphics were performed using Prism 2.01 (Graphpad Software, Inc., San Diego, Calif., USA). […] The calculated log of the octanol:water partition coefficient (ClogP) was calculated using MedChem Software 3.5 (Daylight Chemical Information Systems, New Orleans, La., USA).

Another test relates to Pneumocystis carinii. The test is described as follows: Anti-Pneumocystis carinii activity, P. carinii pneumonia in the rat. The class given is in vivo. Conditions: for anti-P. carinii activity (in words): rat, compared with pentamidine. Here is the method: Anti-Pneumocystis carinii activity. Induction, treatment and evaluation of P. carinii pneumonia in the rat was carried out according to methods described previously (Jones, S. K. et al., Antimicrob. Agents Chemother. 34, 1026-1030 (1990)). To summarize the scoring procedure, the mean histologic scores were determined by two examiners using a blinded protocol. P. carinii cysts were counted in the stained lung sections and assigned the following values; 0.5—less than 10 cysts counted per two fully examined sections; 1—scattered cysts with less than 10% of the lung tissue involved; 2—scattered cysts with limited intense focal involvement and 10 to 25% of lung tissue involved; 3—scattered cysts with numerous intense areas of focal involvement and 26 to 50% of lung tissue involved; 4—cysts found throughout the tissue with numerous intense focal areas of involvement having greater than 50% of lung tissue involved.

The target of test [2] is imidazoline I2 sites. The test is described as follows: [3H]Idazoxan saturation binding in rat liver membranes. Conditions: 22° C., 45 min, read-out: Kd for saturable binding. Here is the method:
Membrane preparation. Membranes were prepared in accordance with known techniques (R. Zonnenchein et al., Eur. J. Pharmacol. 190, 203-215 (1990)). Briefly, male Sprague-Dawley rats (Hilltop, Scottsdale, Pa., USA) weighing approximately 250-300 g were decapitated, their livers rapidly removed and immediately placed into 0.25 M cold sucrose solution. The livers were weighed and minced with scissors before being homogenized at 4° C. in solution A (0.25 M sucrose containing 0.1 mM phenylmethyl sulfonyl fluoride 1:10 v/v) for 1 min using a Biospec homogenizer (Bartlesville, Okla., USA). The homogenate was centrifuged at 600×g for 10 min at 4° C. The resulting pellet was washed with solution A, discarded and the supernatant fractions were combined and centrifuged at 12,000×g for 30 min. This pellet was washed then resuspended in cold buffer B (50 mM Tris/HCl pH 7.4). Using a Bio-Rad (Hercules, Calif., USA) assay kit, the protein concentration was determined using bovine serum albumin as the standard according to the assay of Bradford et al. (Bradford, M. M., 1976. Anal. Biochem. 72, 248-254.). The preparation was stored at −80° C. at a concentration of 20 mg protein/ml. Saturation binding studies. Binding studies were performed in triplicate in 1 ml buffer B containing [^3H]idazoxan (0.1-50 nM). […]

“Also recorded” adds a separate entry of the source. Where a name gives a salt, the structure may show the parent alone.

`N=C(N)c1cccc(OCCCCCOc2cccc(C(=N)N)c2)c1` [001 KAO 011]: at imidazoline receptor, the Ki (commonly the dissociation constant of the complex between target and ligand, obtained from inhibition or displacement) worked out at 0.158 µM.

`N=C(N)c1ccc2[nH]c3ccc(C(=N)N)cc3c2c1` [003 KAO 111] had an inhibition constant (Ki) on imidazoline receptor of 44.7 µM.

With `N=C(N)c1ccc2[nH]c(CCCCc3nc4cc(C(=N)N)ccc4[nH]3)nc2c1` [BABB], the Ki on imidazoline receptor is 5.53 µM.

For the compound `N=C(N)c1ccc2[nH]c(Cc3nc4cc(C(=N)N)ccc4[nH]3)nc2c1` [BABIM], on imidazoline receptor, the affinity corresponds to a Ki of 7.51 µM.

The compound `c1cc2[nH]c(CCCCc3nc4cc(C5=NCCN5)ccc4[nH]3)nc2cc1C1=NCCN1` [BIBB] registered an inhibitory constant (Ki) on imidazoline receptor of 44.8 µM.

On imidazoline I2 sites [1], `c1ccc(C2CC2)c(OCC2=NCCN2)c1` [Cirazoline, cirazoline, reference compound] showed a Ki of 0.003 ± 0.0004 µM.

Consider `N=C(N)c1ccc(OCCCCCOc2ccc(C(=N)N)cc2)cc1` [Compound 1, pentamidine, reference compound], for which, on imidazoline I2 sites [1], the Ki was 0.0014 ± 0.00022 µM and the “Hill Slope” value was −0.8. The same compound returned a mean histologic score in the test with Pneumocystis carinii (rat lung sections, saline control 3.8 out of a possible 4.0) of 1.3.

On to `N=C(N)c1ccc(OCCCCCCOc2ccc(C(=N)N)cc2)cc1` [Compound 2], for which, at imidazoline I2 sites [1], the affinity corresponds to a Ki of 0.0032 ± 0.00036 µM and the “Hill Slope” value is −1.2. Further, the “anti-P. carinii activity (in words)” value in the test with Pneumocystis carinii is listed as “greater than pentamidine”.

For `c1cc(C2=NCCN2)ccc1OCCCCCOc1ccc(C2=NCCN2)cc1` [Compound 3], on imidazoline I2 sites [1], the Ki was determined as 0.0043 ± 0.00109 µM and the “Hill Slope” value is listed as −0.8. Besides, the “anti-P. carinii activity (in words)” value in the test with Pneumocystis carinii was “greater than pentamidine”.

As to `N=C(N)c1ccc(OCCCCOc2ccc(C(=N)N)cc2)cc1` [Compound 4], the “Hill Slope” value in the test on imidazoline I2 sites [1] is reported as −0.8. Besides, the “anti-P. carinii activity (in words)” value in the test on Pneumocystis carinii was “greater than pentamidine”.

As to `COc1cc(C2=NCCN2)ccc1OCCCOc1ccc(C2=NCCN2)cc1OC` [Compound 5], on imidazoline I2 sites [1], the affinity corresponds to a Ki of 0.0501 ± 0.00106 µM and the “Hill Slope” value is on record as −0.9. In the test with Pneumocystis carinii, the “anti-P. carinii activity (in words)” value is listed as “greater than pentamidine; also recorded: equally effective”.

As for `COc1cc(C(=N)N)ccc1OCCCOc1ccc(C(=N)N)cc1OC` [Compound 6], at imidazoline I2 sites [1], the Ki was about 3.5 µM and the “Hill Slope” value is recorded as −0.9. Besides, the “anti-P. carinii activity (in words)” value in the test on Pneumocystis carinii is “greater than pentamidine; also recorded: equally effective”.

As for `N=C(N)c1ccc(OCCCOc2ccc(C(=N)N)cc2)cc1` [Compound 7], in the test with imidazoline I2 sites [1], the “Hill Slope” value was −0.8.

For `N=C(N)c1ccc(OCCCCCOc2ccc([N+](=O)[O-])cc2)cc1` [Compound 8], at imidazoline I2 sites [1], the Ki was determined as 0.062 ± 0.025 µM and the “Hill Slope” value is −0.8.

For `N=C(N)c1ccc(OCCCCCO)cc1` [Compound 9], on imidazoline I2 sites [1], the Ki was found to be 0.319 ± 0.0395 µM and the “Hill Slope” value is listed as −0.8. Further, the “anti-P. carinii activity (in words)” value in the test on Pneumocystis carinii is given as “no activity at all”.

Regarding `COc1ccc(C(=N)N)cc1` [Compound 10, 4-methoxybenzamidine], on imidazoline I2 sites [1], the Ki amounted to 0.228 ± 0.0365 µM and the “Hill Slope” value is −0.8.

For `N=C(N)c1ccc(O)cc1` [Compound 11, 4-hydroxybenzamidine], at imidazoline I2 sites [1], the inhibitory constant (Ki) is about 30 µM and the “Hill Slope” value is on record as −0.3. Besides, the “anti-P. carinii activity (in words)” value in the test with Pneumocystis carinii is reported as “no activity at all”.

For the compound `N=C(N)c1ccccc1` [Compound 12, benzamidine], at imidazoline I2 sites [1], the affinity corresponds to a Ki of 0.58 ± 0.0613 µM and the “Hill Slope” value is −0.8.

As for `N=C(N)c1ccc2c(c1)[nH]c1cc(C(=N)N)ccc12` [DAP 092], at imidazoline receptor, affinity was put at a Ki of 18.1 µM.

As to `c1cc(-c2ccc(-c3ccc(C4=NCCN4)cc3)o2)ccc1C1=NCCN1` [DB 60], on imidazoline receptor, the Ki turned out to be 0.63 µM.

On imidazoline receptor, `N=C(N)c1ccc(-c2ccc(-c3ccc(C(=N)N)cc3)o2)cc1` [DB 75] registered an inhibition constant Ki of 0.653 µM.

Take `c1cc(-c2ccc(-c3ccc(C4=NCCCN4)cc3)o2)ccc1C1=NCCCN1` [DB 103]: the Ki at imidazoline receptor was determined as 0.236 µM.

`CC(C)NC(=N)c1ccc(-c2ccc(-c3ccc(C(=N)NC(C)C)cc3)o2)cc1` [DB 181]: on imidazoline receptor, the Ki was 5.5 µM.

Compound `N=C(N)c1ccc2[nH]c(-c3ccc4[nH]c(-c5ccc(O)cc5)nc4c3)nc2c1` [DB 183] had a Ki on imidazoline receptor of 65.6 µM.

Compound `N=C(N)c1ccc2nc(C3=CCC=C(c4nc5ccc(C(=N)N)cc5[nH]4)N3)[nH]c2c1` [DB 205] returned a Ki at imidazoline receptor of 347 µM.

In the case of `N=C(NC1CCCC1)c1ccc(-c2ccc(-c3ccc(C(=N)NC4CCCC4)cc3)o2)cc1` [DB 244], the inhibition constant (Ki) at imidazoline receptor is 6.75 µM.

On imidazoline receptor, `N=C(N)c1ccc(-c2ccc(-c3ccc(C(=N)N)cc3)[nH]2)cc1` [DB 262] came in with an inhibitory constant (Ki) of 3.79 µM.

Compound `N=C(N)c1ccc(-c2ccc(-c3ccc(C(=N)N)cc3)s2)cc1` [DB 351] had an inhibitory constant (Ki) at imidazoline receptor of 0.111 µM.

For the compound `Cc1ccc(N(CC2=NCCN2)c2cccc(O)c2)cc1` [Phentolamine, phentolamine, reference compound], the Ki at imidazoline I2 sites [1] is over 5 µM.

On to `[3H]c1cc2c(cc1[3H])OC(C1=NCCN1)CO2` (stereo not drawn) [[^3H]idazoxan, (1,4-[6,7-^3H]-benzodioxan-2-yl)-2-imidazoline hydrochloride], for which the dissociation constant (Kd) (usually the equilibrium constant for the complex coming apart) on imidazoline I2 sites [2] is 0.014 ± 0.002 µM.

The values above are taken from patent publication US6635668B1, “Imidazoline receptor binding compounds” (The University of North Carolina at Chapel Hill, priority 1998, dated 2003).
